Source: paper PMC4526861, “Inhibition of protein kinase C by isojacareubin suppresses hepatocellular carcinoma metastasis and induces apoptosis in vitro and in vivo” (Scientific Reports, 2015)

Experiments:
QGY-7703 cells = assay: Cell proliferation assay (CCK-8), QGY-7703; assay type: cell-based, human; conditions: for Inhibitory Ratio (%) QGY-7703: 50 μM; for IC50: Homo sapiens, QGY-7703, mean ± SD, at least three independent experiments
Experimental: (§1) The human HCC cell lines QGY-7703, SMMC-7721 and HepG2 and the liver cell line QSG-7701 were supplied by the Cell Resource Center, Institute of Life Sciences, Chinese Academy of Medical Science. QGY-7703, SMMC-7721 and QSG-7701 cells were cultured in 1640 medium (Gibco), and HepG2 cells were cultured in DMEM medium (Gibco) at 37 °C in moist air supplemented with 5% CO2. All media were supplemented with 10% fetal bovine serum (FBS) and 100 Units/mL of penicillin/streptomycin.
(§2) The cell viability assay was performed as previously reported using a Cell Counting Kit-8 (CCK-8; Dojindo, Kumamoto, Japan)[33][34]. The relative cell viability was presented as % inhibition and calculated using the following formula: […]

HepG2 cells [1] = assay: Cell proliferation assay (CCK-8), HepG2; assay type: cell-based, human; conditions: for Inhibitory Ratio (%) HepG2: 50 μM; for IC50: Homo sapiens, HepG2, mean ± SD, at least three independent experiments
Experimental: as §1, §2

QSG-7701 hepatocytes = assay: Cell proliferation assay (CCK-8), QSG-7701 hepatocytes; assay type: cell-based, human; conditions: Homo sapiens, QSG7701; nonmalignant hepatocytes; mean ± SD
Experimental: as §1, §2

HepG2 cells [2] = assay: Wound healing (migration) assay; assay type: cell-based, human; conditions: 10 μM, 24 h
Experimental: (§3) Cell migration and invasion potencies were studied using wound healing and Matrigel invasion assays. The wound healing assay was performed by scratching the cell surface with a 10 μL pipette tip. Then, the cells were treated with compound 7 and ISJ (10 μM) and incubated for 24 h before being photographed under a microscope (DMI3000 B, Leica). Wound closure was evaluated using ImageJ software. Invasion through a Matrigel-coated filter was measured in transwell chambers (Corning Costa) as described previously, with minor modifications. Briefly, HepG2 Cells (2 × 10^5/well) were suspended in serum-free medium and added to the upper chamber of the Matrigel plate. FBS (10%) was used as the chemoattractant in the lower chamber. After incubation for 24 h, the non-invading cells were removed from the upper surface of the insert membrane with a cotton swab. The invading cells were fixed with methanol and stained with Giemsa (Sigma). Cells in five randomly selected fields were photographed, and the numbers of cells that crossed the membrane were counted.

HepG2 cells [3] = assay: Apoptosis assay, Annexin V-FITC/PI flow cytometry; assay type: cell-based, human; conditions: 48 h
Experimental: To further explore the potential mechanisms of the antiproliferative effects induced by compound 7 and ISJ, Annexin V-FITC/PI double staining was performed to quantify cellular apoptosis by flow cytometry. HepG2 cells were cultured for 48 h in the absence or presence of compound 7 or ISJ at different concentrations (5 or 15 μM).
HepG2 cells were seeded in six-well plates (5 × 10^5 cells/mL) for 24 h and then treated with various amounts of the compounds or 1% DMSO (as control). After 48 h, the cells floating in the medium were collected, and the adherent cells were detached with 0.05% trypsin, washed twice with cold PBS, and centrifuged at 1000 rpm for 5 min at 4 °C. Subsequently, HepG2 cells were gently resuspended in the binding buffer. Thereafter, the cells were stained using the Annexin V-FITC/PI apoptosis detection kit (BD Biosciences, San Jose, CA, USA). After incubation at room temperature for 15 min in the dark, the apoptotic cells were immediately analyzed by flow cytometry (FACS Calibur).

[4] = test system: c-PARP, c-Cas3 and c-Cas9 in xenograft tumors; assay: Histology, IHC and immunoblot of xenograft tumors; assay type: in vivo, BALB/c-nu nude mice; conditions: 5 mg/kg
Experimental: (§4) The total membrane and cytosolic proteins were extracted using a Membrane and Cytosol Protein Extraction Kit (Beyotime). Extracted proteins from cells or animal tissues were separated by SDS-PAGE and transferred to polyvinylidene difluoride (PVDF) membranes (Bio-Rad). The PVDF membranes were blocked with 5% nonfat milk and incubated with primary antibodies overnight, followed by incubation with a donkey anti-rabbit or anti-mouse secondary antibody (IRDye 800, LI-COR, Biosciences). The images were captured using the Odyssey Infrared Imaging System (LI-COR, Biosciences), according to the manufacturer's instructions. The intensity was quantitative with Quantity One software (Bio-Rad). To ensure equal protein loading, each membrane was stripped and reprobed with an anti-β-actin antibody. All experiments were repeated independently no less than three times.
To further confirm the antitumor activities of compound 7 and ISJ in vivo, histological analysis was performed on the hepatoma xenografts. Briefly, the samples were fixed in a 10% formalin solution, processed, embedded, sectioned and either H&E stained to reveal tumor tissue necrosis or IHC stained using antibodies against c-PARP, c-Cas3 or c-Cas9. The H&E and IHC images were obtained on a Leica DMI3000 B phase-contrast microscopy. The immunoreactive areas in the IHC images were quantified using ImagePro Plus 6.0 software (Media Cybernetics, Silver Spring, MD). The integrated optical density (IOD) values were represented as the mean ± SEM.

HepG2 xenografts = assay: Antitumor activity in vivo, HepG2 xenograft; design: species or system BALB/c-nu nude mice; conditions: 5 mg/kg, tail vein injection every other day for two weeks
Experimental: Four-week-old male BALB/c-nu nude mice (15–20 g) were obtained from the Shanghai SLAC Laboratory Animal Co., Ltd. (Shanghai, China). The animals were maintained under specific pathogen-free conditions with food and water supplied ad libitum in the Laboratory Animal Center of the Second Military Medical University. All animal experiments were carried out in accordance with the Guide for the Care and Use of Laboratory Animals of the National Institutes of Health and were approved by the Committee on the Ethics of Animal Experiments of the Second Military Medical University, China.
(§5) HepG2 cells were harvested and resuspended in PBS. A total of 5 × 10^6 cells were subcutaneously injected into the right flank. Tumor volume was calculated using the following formula: V = (L × W^2)/2, where L is the length and W is the width of the tumor nodules measured with vernier calipers. Once the volume of the tumors reached 75–100 mm^3, the mice were randomly divided into three groups (n = 5). The mice were treated every other day for two weeks with tail vein injections of either vehicle (5% ethanol and 2.5% polyethylene glycol in saline), compound 7, or ISJ (5 mg/kg in the vehicle). Body weights were measured before each drug injection. After the 15th day, the mice were euthanized, and the tumors were isolated, weighed and photographed.

HepG2 cells [5] = assay: Matrigel invasion assay; assay type: cell-based, human; conditions: Homo sapiens, HepG2, 24 h, read-out: inhibition of invasiveness compared to control
Experimental: as §3

PKCζ = assay: Western blot of PKC isoform expression in cytosol and membrane; assay type: cell-based, human; conditions: HepG2, 24 h incubation
Experimental: To further determine whether compound 7 and ISJ represent potential candidates for selective PKC expression inhibitors against hepatoma, the expression of PKC isoforms in HepG2 cells was characterized by western blotting. After 24 h of incubation with GFX, GO, ISJ and compound 7 at the indicated concentrations, PKC proteins from the cytosol and membrane of HepG2 cells were evaluated. ISJ and compound 7 treatments reduced both the cytosol and cell membrane expression of PKCζ.
as §4

PKC = PKC activity assay (PepTag non-radioactive, HepG2 lysates); assay type: biochemical, human; conditions: 3 h
Experimental: The activity of PKC in HepG2 cells was assessed 3 h after the addition of compound 7 or ISJ by measuring the phosphorylation of a PKC-specific target peptide. Compared to the basal control (in the absence of any compound), PKC activity was inhibited by compound 7 and ISJ.
Figure 3 Effects of compound 7 and ISJ on PKC activity in HepG2 cells. The proteins from lysed HepG2 cells were prepared and measured for their ability to phosphorylate a PKC-specific peptide substrate (PLSRTLSVAAK) in a non-radioactive assay. (a) Lanes 1 and 2 show the negative (water only) and positive controls (with 20 ng purified PKC). Supernatants from HepG2 cells were subjected to the PKC activity assay in the absence (basal control, lane 3) or presence (lanes 4–7) of the compounds. Compound 7 (lanes 4 and 5) and ISJ (lanes 6 and 7) were added separately at 10 and 5 μM. (b) Quantification of (a); *P < 0.05 versus the basal control. Data are shown as the mean ± SD of three independent experiments.
The PKC activity assay was carried out as previously reported, according to the instructions of the PepTag non-radioactive PKC assay kit (Promega)[60]. The bands were photographed using the Syngene GBOX-iCHEMI-XR system, and the phosphorylated bands were cut out for quantification measurement at 570 nm.

[6] = Body weight in xenograft study; assay type: in vivo, BALB/c-nu nude mice; conditions: 5 mg/kg, tail vein, two weeks
Experimental: as §5

SMMC-7721 cells = assay: Cell proliferation assay (CCK-8), SMMC-7721; assay type: cell-based, human; conditions: Homo sapiens, SMMC-7721; mean ± SD, at least three independent experiments
Experimental: as §1, §2

advanced HCC = test system: advanced HCC; design: method as in PMID 18650514; conditions: patients with advanced HCC; cited from earlier work

| Compound | Inhibitory Ratio (%) QGY-7703 (QGY-7703 cells) [%] | Inhibitory Ratio (%) HepG2 (HepG2 cells [1]) [%] | other results |
| --- | --- | --- | --- |
| Cc1ccc(S(=O)(=O)Oc2cc3c(c4oc5c(O)c(O)ccc5c(=O)c24)C=CC(C)(C)O3)cc1 [compound 11] | 21.44 | 45.36 |  |
| O=c1c2ccc3c(c2oc2cc(O)cc(O)c12)OC(c1ccccc1)(c1ccccc1)O3 [compound 7, 7,9-dihydroxy-2,2-diphenyl-6H-[1,3]dioxolane[4,5-c]xanthen-6h-one] | 79.93 | 90.99 | IC50 (QSG-7701 hepatocytes): 53.51 ± 0.13 µM; decrease of HepG2 cell migration compared to control (HepG2 cells [2]): 76.4%; number of apoptotic cells compared to the control group (HepG2 cells [3]; 5 μM): did not alter; percentage of apoptotic cells (HepG2 cells [3]; 15 μM): increased significantly; IC50 (QGY-7703 cells): 9.88 ± 0.18 µM; IC50 (HepG2 cells [1]): 7.34 ± 0.09 µM; H&E staining of xenograft tumors [4]: significant tissue death; IHC c-PARP, c-Cas3 and c-Cas9 levels in tumors [4]: upregulated expression; immunoblot c-PARP, c-Cas3 and c-Cas9 levels in tumor tissue [4]: increased; reduction of tumor weight compared to controls (HepG2 xenografts): 49.4%; inhibition at 10 µM (HepG2 cells [5]): 69%; PKCζ expression in cytosol and cell membrane (PKCζ): reduced; inhibition of PKC activity compared to the basal control (PKC; 5 μM): 40.9%; inhibition of PKC activity compared to the basal control (PKC; 10 μM): 54.1%; change in body weight compared to vehicle-treated controls [6]: no significant change; IC50 (SMMC-7721 cells): 6.35 ± 0.42 µM |
| C#CC(C)(C)Oc1cc(O)c2c(=O)c3ccc4c(c3oc2c1)OC(c1ccccc1)(c1ccccc1)O4 [compound 8] | −9.85 | 6.88 |  |
| CCOC(=O)/C=C/c1c(OC)cc(OC)c2c(=O)c3ccc(OC)c(OC)c3oc12 [compound 13] | 16.17 | 47.29 |  |
| CNC(=O)c1cc(Oc2ccc(NC(=O)Nc3ccc(Cl)c(C(F)(F)F)c3)cc2)ccn1 [sorafenib] |  |  | improvement of overall survival (advanced HCC): approximately three |
| CCOC(=O)[C@@H](O)[C@H](O)c1c(OC)cc(OC)c2c(=O)c3ccc(OC)c(OC)c3oc12 [compound 14] | 13.15 | 25.40 |  |
| O=c1c2ccc(O)c(O)c2oc2cc(O)cc(O)c12 [compound 6] | −0.66 | 13.80 |  |
| COc1cc(OC)c2c(=O)c3ccc(OC)c(OC)c3oc2c1 [compound 5] | 20.81 | 22.61 | melting point: 138 to 140 °C |
| C#CC(C)(C)Oc1cc(OS(=O)(=O)c2ccc(C)cc2)c2c(=O)c3ccc4c(c3oc2c1)OC(c1ccccc1)(c1ccccc1)O4 [compound 9] | −3.98 | 12.46 |  |
| Cc1ccc(S(=O)(=O)Oc2cc3c(c4oc5c6c(ccc5c(=O)c24)OC(c2ccccc2)(c2ccccc2)O6)C=CC(C)(C)O3)cc1 [compound 10] | 0.66 | 18.01 |  |
| O=c1[nH]cc(F)c(=O)[nH]1 [5-Fu, 5-Fluorouracil, reference compound] |  |  | IC50 (QSG-7701 hepatocytes): 0.6 ± 0.03 µM; IC50 (QGY-7703 cells): 15.66 ± 0.07 µM; IC50 (HepG2 cells [1]): 12.48 ± 0.11 µM; IC50 (SMMC-7721 cells): 14.6 ± 0.36 µM |
| COc1ccc2c(=O)c3c(OC)cc(OC)c(/C=C/C(C)(C)O)c3oc2c1OC [compound 16] | 13.26 | 15.95 |  |
| COc1ccc2c(=O)c3c(OC)cc(OC)c(C=O)c3oc2c1OC [compound 12] | 20.97 | 26.12 |  |
| COc1ccc2c(=O)c3c(OC)cc(OC)c(I)c3oc2c1OC [compound 15] | −1.75 | 24.07 |  |
